Results from the NIST ThermoML archive (doi:10.1021/je700100a).
Numbers after ± are expanded uncertainties.

Assay: mn = molality of the nth substance listed, in mol/kg
Conditions: 101 kPa, Liquid, Buoyancy - hydrostatic balance with magnetic suspension - one sinker

mass density (298.15 K, m1 = 0.0306): 998.491 ± 0.41 kg/m3 | mass density (303.15 K, m1 = 0.0105): 996.131 ± 0.41 kg/m3 | mass density (303.15 K, m1 = 0.02061): 996.605 ± 0.41 kg/m3
SMILES: [Cl-].[K+] [potassium chloride] + O
